By IC50 is commonly meant the concentration that gives 50% inhibition.
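Wherever PCY is given: radioligand displacement of N6-[3H]cyclohexyladenosine binding in rat brain membranes, PCY computed as the log of 100000 divided by IC50.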

One assay addresses T1, Adenosine receptor A1 (Rattus norvegicus) (UniProt P25099).
T1 sequence (whole entry): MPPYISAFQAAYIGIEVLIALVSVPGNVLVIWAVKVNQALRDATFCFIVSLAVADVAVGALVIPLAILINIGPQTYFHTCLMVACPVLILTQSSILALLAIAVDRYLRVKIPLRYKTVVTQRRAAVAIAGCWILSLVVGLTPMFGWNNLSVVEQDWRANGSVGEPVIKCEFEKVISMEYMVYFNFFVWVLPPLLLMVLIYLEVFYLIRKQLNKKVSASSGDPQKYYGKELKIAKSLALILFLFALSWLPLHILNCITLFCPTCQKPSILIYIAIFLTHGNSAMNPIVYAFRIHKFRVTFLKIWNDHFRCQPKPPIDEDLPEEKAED
The following applies: Brain; Membrane.
Description: Binding affinity against adenosine A1 receptor in rat brain membrane preparations using N6-[3H]cyclohexyladenosine as radioligand, PCY = log (100000/IC50).
For the molecule `Cc1nn(C)c2c(O)nc(-c3ccc(Cl)cc3)nc12`, the PCY was found to be 2.4. With `Cn1c(=O)c2nc(-c3cccnc3)[nH]c2n(C)c1=O`, the PCY turned out to be 3.3.

With `CCn1c(=O)n(C)c(=O)c2[nH]c(-c3ccccc3)nc21`, the PCY is 4.5. `COc1cc(OC)cc(-c2nc(O)c3c(n2)c(C)nn3C)c1` came in with a PCY of 1.2. On the same count and under the same terms, as for `Cn1c(=O)c2nc(-c3ccc(Cl)cc3N)[nH]c2n(C)c1=O`, the figure is 5.4; as for `Cc1nn(C)c2c(O)nc(-c3ccc(N)cc3)nc12`, 2.4; as for `Cc1nn(C)c2c(O)nc(-c3ccc(Cl)cc3N)nc12`, 2.5.

`Cc1nn(C)c2c(O)nc(-c3ccccc3N)nc12` displayed a PCY of 2.6. Still for that read-out and setting: as for `Cn1c(=O)c2nc(-c3ccccc3N)[nH]c2n(C)c1=O`, the figure is 4.3. On the same count and under the same terms, as for `COc1ccc(-c2nc(O)c3c(n2)c(C)nn3C)cc1OC`, the figure is 1.7; as for `Cc1nn(C)c2c(O)nc(-c3ccc([N+](=O)[O-])cc3)nc12`, 2.1; as for `Cc1nn(C)c2c(O)ncnc12`, 0.7. Same read-out and setting: in the case of `Cn1c(=O)c2nc(-c3ccc(S(=O)(=O)O)cc3)[nH]c2n(C)c1=O` it was 3.6; in that of `COc1cccc(-c2nc(O)c3c(n2)c(C)nn3C)c1`, 1.8. Turning to `Cc1nn(C)c2c(O)nc(-c3cccc(N)c3)nc12`, the PCY was found to be 1.8. On to `Cn1c(=O)c2nc(Cc3ccccc3)[nH]c2n(C)c1=O`, for which the PCY amounted to 1.8. The same measure, in the same setting: as for `Cc1nn(C)c2c(O)nc(-c3cccnc3)nc12`, the figure is 1.5; as for `COc1ccccc1-c1nc2c(=O)n(C)c(=O)n(C)c2[nH]1`, 2.5. On the same count and under the same terms, in the case of `COc1ccc(-c2nc(O)c3c(n2)c(C)nn3C)c(OC)c1` it was 1.3; in that of `Cc1nn(C)c2c(O)nc(-c3cccc([N+](=O)[O-])c3)nc12`, 1.9. Still for that read-out and setting: as for `Cc1nn(C)c2c(O)nc(-c3ccccc3)nc12`, the figure is 2; as for `Cc1ccc(-c2nc(O)c3c(n2)c(C)nn3C)cc1`, 2.4; as for `Cc1nn(C)c2c(O)nc(-c3ccc(S(=O)(=O)O)cc3)nc12`, 1.6. The molecule `Cn1c(=O)c2nc(-c3ccc(N)cc3)[nH]c2n(C)c1=O` displayed a PCY of 4.7. On the same count and under the same terms, as for `Cc1nn(C)c2c(O)nc(Cc3ccccc3)nc12`, the figure is 1.9; as for `COc1cccc(-c2nc3c(=O)n(C)c(=O)n(C)c3[nH]2)c1`, 3.7. Same read-out and setting: in the case of `Cn1c(=O)c2nc(-c3ccc(Cl)c(Cl)c3)[nH]c2n(C)c1=O` it was 4.3. Same read-out and setting: in the case of `Cc1nn(C)c2c(O)nc(-c3ccc(Cl)c(Cl)c3)nc12` it was 2. The molecule `CCn1nc(C)c2nc(-c3ccccc3)nc(O)c21` returned a PCY of 2.2. `COc1ccccc1-c1nc(O)c2c(n1)c(C)nn2C` registered a PCY of 1.

In turn, `Cc1nn(C)c2c(O)nc(-c3ccncc3)nc12` came in with a PCY of 2.

For a further assay, the target named is T2, Adenosine receptor A1 (Rattus norvegicus, UniProt P25099).
T2 sequence (P25099 whole entry): T1 sequence (whole entry)
The assay can be described thus: Binding affinity against adenosine A1 receptor in rat brain membrane preparations using N6-[3H]cyclohexyladenosine as a radioligand.
Conditions: not given
It counts as cell membranes.
Molecule `Cn1c(=O)c2[nH]c(-c3ccc([N+](=O)[O-])cc3)nc2n(C)c1=O` showed an IC50 of 8 nM.

`CCn1c(=O)n(C)c(=O)c2[nH]c(-c3ccccc3)nc21`: the 50% inhibitory concentration (IC50) worked out at 3 nM. Still for that read-out and setting: as for `CC(Sc1nc(SC(C)C(N)=O)c2cnn(-c3ccccc3)c2n1)C(N)=O` (centres undefined), the figure is 1030 nM; as for `COc1cc(OC)cc(-c2nc(O)c3c(n2)c(C)nn3C)c1`, 7060 nM. On the same count and under the same terms, in the case of `Cc1nn(C)c2c(=O)[nH]c(Cc3ccccc3)nc12` it was 1310 nM. On the same count and under the same terms, as for `Cc1nn(C)c2c(=O)[nH]c(-c3ccc(Cl)cc3N)nc12`, the figure is 310 nM. In turn, `Cc1nn(C)c2c(=O)[nH]cnc12` registered an IC50 of 20100 nM. The same measure, in the same setting: as for `COc1cccc(-c2nc3c(C)nn(C)c3c(=O)[nH]2)c1`, the figure is 1470 nM; as for `Cn1c(=O)c2[nH]c(-c3cccnc3)nc2n(C)c1=O`, 50 nM; as for `Cc1nn(C)c2c(O)nc(-c3ccccc3N)nc12`, 230 nM. Still for that read-out and setting: in the case of `COc1ccc(-c2nc3c([nH]2)c(=O)n(C)c(=O)n3C)c(OC)c1` it was 200 nM; in that of `Cn1c(=O)c2nc(-c3ccccc3N)[nH]c2n(C)c1=O`, 5.5 nM; in that of `Cn1c(=O)c2[nH]c(-c3ccc(N)cc3)nc2n(C)c1=O`, 1.8 nM.

`Cc1nn(C)c2c(=O)[nH]c(-c3ccc(N)cc3)nc12`: the IC50 was 380 nM. The same measure, in the same setting: in the case of `Cc1ccc(-c2nc3c(C)nn(C)c3c(=O)[nH]2)cc1` it was 400 nM; in that of `Cn1c(=O)c2[nH]c(Cc3ccccc3)nc2n(C)c1=O`, 1500 nM; in that of `CCn1nc(C)c2nc(Cc3ccccc3)nc(O)c21`, 820 nM.

Take `COc1cc(OC)cc(-c2nc3c([nH]2)c(=O)n(C)c(=O)n3C)c1`: the IC50 was 500 nM.

`Cn1c(=O)c2nc(-c3cccc([N+](=O)[O-])c3)[nH]c2n(C)c1=O` had an IC50 of 50 nM. Same read-out and setting: in the case of `CCn1nc(C)c2nc(-c3ccncc3)[nH]c(=O)c21` it was 250 nM; in that of `COc1ccccc1-c1nc2c([nH]1)c(=O)n(C)c(=O)n2C`, 350 nM; in that of `Cc1nn(C)c2c(O)nc(-c3ccc(S(=O)(=O)O)cc3)nc12`, 2300 nM.

In turn, `Cc1nn(C)c2c(=O)[nH]c(-c3ccc(S(=O)(=O)NCCN(C)C)cc3)nc12` yielded a 50% inhibitory concentration (IC50) of 68 nM. In turn, `Cn1c(=O)c2nc(-c3ccc(Cl)c(Cl)c3)[nH]c2n(C)c1=O` yielded an IC50 of 5 nM.

In turn, `Cc1ccc(-c2nc3c([nH]2)c(=O)n(C)c(=O)n3C)cc1` came in with an IC50 of 0.8 nM.

The molecule `Cn1c(=O)c2[nH]c(-c3ccc(Cl)cc3)nc2n(C)c1=O` showed an IC50 of 0.8 nM. Still for that read-out and setting: in the case of `Cn1c(=O)c2[nH]c(-c3ccc(Cl)cc3N)nc2n(C)c1=O` it was 0.4 nM; in that of `Cn1c(=O)c2[nH]c(-c3cccc(N)c3)nc2n(C)c1=O`, 10 nM.

The record behind these values is ChEMBL document CHEMBL1123597, “Synthesis and structure-activity relationships of pyrazolo[4,3-d]pyrimidin-7-ones as adenosine receptor antagonists” (J Med Chem, 1987).
